From article PMC11460631, “Inhibition of transient receptor potential vanilloid 3 channels by antimalarial hydroxychloroquine alleviates TRPV3-dependent dermatitis” (The Journal of Biological Chemistry, 2024) come the findings set out here.

A word on the inhibition: it is how much of the control response was suppressed. The low end stands for little suppression, the high end for strong suppression. Usually IC50 stands for the concentration at which inhibition is half-maximal.

The target in one experiment is T1, mTRPV4 (Mus musculus, UniProt Q9EPK8).
T1 construct: YFP or GFP; expressed in transfected cells; host or cells: HEK293T
T1 sequence (Q9EPK8 whole entry): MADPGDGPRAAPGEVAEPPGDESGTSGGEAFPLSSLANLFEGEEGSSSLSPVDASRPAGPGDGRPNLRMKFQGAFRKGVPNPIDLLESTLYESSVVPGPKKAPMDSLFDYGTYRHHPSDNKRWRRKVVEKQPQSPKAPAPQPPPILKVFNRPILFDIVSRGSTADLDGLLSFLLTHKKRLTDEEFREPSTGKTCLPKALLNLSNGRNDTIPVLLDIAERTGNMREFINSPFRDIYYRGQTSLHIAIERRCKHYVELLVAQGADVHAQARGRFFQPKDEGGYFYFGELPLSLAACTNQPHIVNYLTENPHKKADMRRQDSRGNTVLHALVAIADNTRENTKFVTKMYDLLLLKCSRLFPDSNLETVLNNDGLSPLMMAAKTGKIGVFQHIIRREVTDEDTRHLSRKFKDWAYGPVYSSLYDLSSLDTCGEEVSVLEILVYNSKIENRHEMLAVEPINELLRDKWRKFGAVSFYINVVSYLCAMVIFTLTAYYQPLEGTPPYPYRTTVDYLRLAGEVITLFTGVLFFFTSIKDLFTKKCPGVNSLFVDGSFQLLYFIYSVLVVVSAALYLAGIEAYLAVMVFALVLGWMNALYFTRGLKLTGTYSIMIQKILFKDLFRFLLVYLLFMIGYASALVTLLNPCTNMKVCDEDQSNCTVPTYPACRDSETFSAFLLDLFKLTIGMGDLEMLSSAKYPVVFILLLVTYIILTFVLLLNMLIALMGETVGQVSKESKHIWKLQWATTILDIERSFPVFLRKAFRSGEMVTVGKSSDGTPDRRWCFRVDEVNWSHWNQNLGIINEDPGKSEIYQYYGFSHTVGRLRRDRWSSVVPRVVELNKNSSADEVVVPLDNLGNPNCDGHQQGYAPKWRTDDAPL
Kind of experiment: Whole-cell current recordings, mTRPV4. As to conditions: 100 μM HCQ; current activated by 1 μM GSK1016790A. The format is cell-based, murine. The method, then:
To elucidate the specificity of HCQ inhibition on TRPV3, we conducted whole-cell current recordings on other known pruritus-related TRP channels, such as hTRPA1, mTRPV1, mTRPV4, and mTRPM8 (Fig. 3, A and F). […] Because of the relatively larger inhibition of HCQ on mTRPM8 current, we tested the concentration dependence of HCQ on mTRPM8 channels.
HEK293T cells are cultured using Dulbecco's modified Eagle's medium containing 10% fetal bovine serum and 1% penicillin-streptomycin in a cell incubator with 5% CO2 at 37 °C. Plasmids of murine TRPV1, TRPV4, TRPM8, and human TRPV3, TRPA1 are labeled with YFP or GFP as indicators for subsequent electrophysiological recordings. Complementary DNA constructs of ion channels were transiently transfected with Lipofectamine 3000 (Invitrogen). And 12 to 18 h after transient transfection, electrophysiological recordings were performed.
Patch-clamp recordings were carried out with a HEKA EPC10 amplifier controlled by PatchMaster software (HEKA; https://www.heka.com/products/products_main.html#soft_pm) ([36]). Patch pipettes were prepared from borosilicate glass and fire-polished to the resistance of 3 to 8 MΩ by P-97 puller for whole-cell recordings. For single-channel recordings, patch pipettes were fire-polished to a higher resistance of 6 to 10 MΩ. […]

The next experiment deals with T2, TRPV3 L591A mutant (Homo sapiens, UniProt Q8NET8, L591A).
T2 construct: YFP or GFP; expressed in transfected cells; host or cells: HEK293T
T2 sequence (Q8NET8 1-790 L591A): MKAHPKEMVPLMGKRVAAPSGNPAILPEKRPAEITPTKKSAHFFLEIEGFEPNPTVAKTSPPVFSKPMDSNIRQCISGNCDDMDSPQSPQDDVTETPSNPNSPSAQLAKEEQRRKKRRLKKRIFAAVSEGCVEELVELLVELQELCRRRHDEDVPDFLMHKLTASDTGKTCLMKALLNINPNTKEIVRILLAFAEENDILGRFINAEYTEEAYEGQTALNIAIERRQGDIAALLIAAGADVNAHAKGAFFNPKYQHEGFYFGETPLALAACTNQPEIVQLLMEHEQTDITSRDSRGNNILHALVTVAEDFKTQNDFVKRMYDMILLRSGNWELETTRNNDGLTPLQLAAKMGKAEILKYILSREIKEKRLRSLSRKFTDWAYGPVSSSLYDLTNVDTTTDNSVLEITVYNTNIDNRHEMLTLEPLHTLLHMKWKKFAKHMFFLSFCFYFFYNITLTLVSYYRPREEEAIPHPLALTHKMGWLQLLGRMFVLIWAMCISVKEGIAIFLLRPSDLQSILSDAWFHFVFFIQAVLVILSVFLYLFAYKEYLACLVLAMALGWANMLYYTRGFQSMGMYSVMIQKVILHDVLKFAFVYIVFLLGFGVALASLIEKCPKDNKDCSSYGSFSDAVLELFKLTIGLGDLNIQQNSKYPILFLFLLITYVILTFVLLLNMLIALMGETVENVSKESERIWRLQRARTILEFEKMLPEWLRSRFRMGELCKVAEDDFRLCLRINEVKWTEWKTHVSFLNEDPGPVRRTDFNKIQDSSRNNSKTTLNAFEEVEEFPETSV
In words: Whole-cell recording of TRPV3 L591A mutant. The class given is cell-based. The text has this: As we mentioned above, HCQ may act as a pore blocker of TRPV3. To probe the binding configuration of HCQ to TRPV3, we carried out molecular docking using Rosetta suite (https://rosettacommons.org) ([21]) and validated the docking models with point mutations in TRPV3 (Fig. 4A). […] Furthermore, when we introduced L670A to L591A mutant, we also observed a left shift on the concentration–response curve on this double mutant as compared to L591A mutant (Fig. 4H).
Figure 4 Residues of the pore domain are critical for HCQ inhibition on TRPV3.A, left panel, docking model of HCQ to the pore domain of TRPV3 structure (6uw4). Right panels, top view and side view of the HCQ-binding pocket. B-J, representative whole-cell recording of TRPV3 and mutants in response to 1 mM 2-APB, the mixture of 1 mM 2-APB and concentration gradients of HCQ with the holding potential of ± 80 mV. K, concentration–response curves of HCQ in WT TRPV3 and mutants (n = 3–5 cells). L, quantification of the inhibitory ratio of HCQ (100 μM) on WT, L591A, and N671Q. […]
All data from whole-cell recordings were analyzed in Igor Pro (WaveMetrics). IC50 values were determined by fitting the Hill equation to concentration-response relationships. […]

SMILES strings stand for the structures.

On to `CCN(CCO)CCCC(C)Nc1ccnc2cc(Cl)ccc12` (stereo not drawn) [HCQ, hydroxychloroquine], for which the “reduction of mTRPV4 current” value on mTRPV4 was 18.37% ± 11.21%. In addition, testing at 100 µM on TRPV3 L591A mutant (100 μM HCQ) gave an inhibition of 28.4%. In addition, the IC50 against TRPV3 L591A mutant (1 mM 2-APB, ± 80 mV) came to 203 ± 10.8 µM.
